According to publication PMC9421654, “Discovery of Substituted Di(pyridin-2-yl)-1,2,4-thiadiazol-5-amines as Novel Macrofilaricidal Compounds for the Treatment of Human Filarial Infections” (Journal of Medicinal Chemistry, 2022):
≈ marks a conversion by molar mass, not a printed value. Where two headings read alike, the source gives them in different places.

Legend:
[1] = Kinetic solubility measurement; format: physicochemical; details: 10 mM DMSO stock solutions
Method: Kinetic Solubility Measurement: The standard kinetic solubility assay runs on […] concentration range using 10 mM DMSO stock solutions for plating. Single point calibration assay runs in duplicates. Concentration of standards: […] DMSO solutions prepared by diluting 10 mM stock, solution with DMSO. Concentration of samples: 200 µM, 4 µl 10 mM DMSO stock solution diluted with the appropriate buffer to […]. DMSO content:
2%. Buffers: pH=7.4 (0.1M Potassium phosphate buffer, diluted from Sigma 1M P3619-1GA to 0.1 M with MilliQ water), pH=2.2 (0.1M- NaCl pH adjusted with 0.1N HCL), pH=6.8 (0.1M - KH2PO4/K2HPO4), pH=5 (4 .04g of NaOH (Pellets), 8.65g of Glacial Acetic Acid, 11.874g of NaCl. In in 1 liter water. Adjusted to pH to 5 with either 1N NaOH or 1N HCl). The controls were plated from the standard 10 mM DMSO stock and run on the standard concentration (200µM) range of the assay. Incubation time: 24 hours shaking at […] in Millipore Multiscreen HTS filter plate for Aqueous Solubility Assay (MSSLBPC50), on room temperature.
After incubation time filtration with positive pressure manifold was performed. […]

[2] = Liver S9 metabolic stability assay, human; format: in vitro ADME; details: 3 μM, 60 min
Method: (§1) Liver S9 Metabolic Stability Assay: Incubations were performed at 37 °C in a Dubnoff Shaking water bath using 2 mL 96-well incubation plates. Rat and human S9 protein concentrations were 0.75 mg/ml and 1.2 mg/ml, respectively. The final concentrations of NADPH, UDPGA, and GSH were 1, 0.5, and 2.5 mM, and the final concentration of PAPS was 0.05 mg/ml. Substrate concentrations were 3µM, incubation time was 60 minutes, and all tests were done in triplicate. The incubation was conducted in 200 mM Tris buffer containing 2 mM magnesium chloride, pH=7.4 and the total incubation volume was 0.5 ml. Samples were analysed via LC-MS/MS and reported as percentage remaining after incubation for 60 minutes. […]

[3] = LogD measurement (octanol-water); format: physicochemical
Method: LogD Measurement: Measurement of octanol-water distribution coefficient of samples using a […]
stock solutions for plating. Aqueous Phase: 100mM Buffer, pH=7.4 (0.1M Potassium phosphate buffer, diluted from Sigma 1M P3619-1GA to 0.1 M with MilliQ water), pH=2.2 (0.1M- NaCl pH adjusted with 0.1N HCL), pH=6.8 (0.1M - KH2PO4/K2HPO4), pH=5 (4 .04g of NaOH (Pellets), 8.65g of Glacial Acetic Acid, 11.874g of NaCl. In in 1 liter water. Adjusted to pH to 5 with either 1N NaOH or 1N HCl); Organic Phase: 1-Octanol (O021). Sample Concentration:
1000uM, […] 10 mM DMSO stock solution diluted in […] of organic Phase and […] of aqueous Phase. DMSO content: 10%. The controls were plated from the standard 10 mM DMSO stock and run on the standard concentration ([…]) range of the assay. Incubation time:
Sonication for 30 minutes followed by 24 hours shaking at 750 rpm in 96 deep well plate (VWR

[4] = Liver S9 metabolic stability assay, rat; format: in vitro ADME; details: 3 μM, 60 min
Method: as §1

[5] = test system: O. gutturosa adult male worms; assay: O. gutturosa adult worm ex vivo assay, motility; format: cell-based, Onchocerca gutturosa
Method: (§2) Activity against O. gutturosa adult male worms was determined using reported procedures.[7] The EC50 values were calculated using Microsoft Office Excel (2010) data analysis software. The tested compound is considered active when a motility reduction of ≥50% is observed by comparison to the untreated controls. O. gutturosa adult male worms were obtained postmortem from freshly slaughtered cattle. The worms were dissected from the nuchal ligament connective tissues of naturally infected cattle in Gambia, West Africa; the material was purchased from the International Trypanotolerance Centre, Banjul, from local butchers for use in this study. The adult worms were transferred individually to each well of a sterile 24-well (2 mL) plate (Thermo Fisher Scientific, UK) and maintained for at least 24 h in culture before use. The medium used was a minimum essential medium (MEM) with Earl’s salts and L-glutamine (Life Technologies Ltd., UK) supplemented with 10% heat inactivated newborn calf serum (Life Technologies Ltd., UK), 200 units/mL penicillin, 200 μg/mL streptomycin, and 0.5 μg/mL amphotericin B (Life Technologies Ltd., UK). Only normally active worms were used for the test, and all assays were conducted at 37 °C and 5% CO2. The positive control drug used was Immiticide (melarsomine dihydrochloride, Merial, USA). Known amounts of compounds were solubilized in 1 mL of DMSO. All stock solutions were allowed to stand at room temperature prior to use. The test items (four worms/drug concentration) were compared to untreated controls (six worms) and the positive control (two worms/drug concentration). Drug efficacy was assessed by the measurement of mean worm motility scores on a scale of 0 (immotile) to 10 (maximum) every 24 h, terminating at 120 h, using an Olympus inverted microscope. The results are reported as a percentage of the maximum score obtainable (100%) by calculating the motility index scores. The test drug is considered active when a motility reduction of ≥50% is observed by comparison to the untreated controls. […] In addition, biochemical evaluation of worm viability was assessed using MTT/formazan colorimetry. The MTT assay was carried out after the last motility reading (120 h). Single intact worms were placed in each well of a 48-well plate (Thermo Fisher Scientific, UK) containing 0.5 mL of 0.5 mg/mL MTT (Sigma, UK) in PBS solution and then incubated for 30 min at 37 °C. The worms were removed, blotted carefully, and individually transferred to separate wells of a 96-well microtiter plate, each containing 200 μL of DMSO to solubilize the formazan. After 1 h, the plate was gently agitated to disperse the color evenly and the absorbance value (optical density, OD) of the resulting formazan solution was determined at 490 nm using an absorbance microplate reader (Biotek ELx800, Thermo Fisher Scientific, UK). The results are expressed as the mean OD per drug concentration. Inhibition of formazan formation is correlated with worm damage or death.
Data S1. Onchocerca gutturosa adult male worms EC 50 Curves
Plotted using Graph Pad Prism 7.03, least square original fit, sigmoidal, 4PL
The measurement of mean worm motility every 24 h, terminating at 120 h, serial 1 in 4 drug dilutions to find
activity endpoint and produce EC50 values (geomean, n=2) for motility reduction. (4 worms per drug […]

[6] = test system: O. gutturosa adult male worms; assay: O. gutturosa adult worm ex vivo assay, MTT/formazan viability; format: cell-based, Onchocerca gutturosa; details: supplement, SD in brackets in the PDF table, read-out: O. gutturosa EC50 (uM) MTT viability inhibition
Method: as §2

[7] = supplement, read-out: measured logD
[8] = Onchocerca gutturosa, read-out: O. gutturosa EC50 μM (SD), ex vivo adult worm motility reduction, SD in brackets
[9] = Onchocerca gutturosa, read-out: O. gutturosa EC50 (uM) motility inhibition, supplement, SD in brackets in the PDF table

Row | SMILES | solubility kinetic at 24 h [1] | Human S9 metabolic stability [2] | logD at 24 h ([3]; pH 7.4, read-out: logD) | logD at 24 h [3, 7] | Rat S9 metabolic stability [4] | EC50 [5, 8] | EC50 [5, 9] | EC50 ([6]; Onchocerca gutturosa) | EC50 ([5]; read-out: O. gutturosa EC50 (uM) motility inhibition, supplement, SD in brackets in the PDF table) | EC50 [6]
1 | Cc1nccnc1Nc1nc(-c2ccc(OC(C)C)cn2)ns1 [Compound 41, 3-(5-Isopropoxy-2-pyridyl)-N-(3-methylpyrazin-2-yl)-1,2,4-thiadiazol-5-amine] | 24.5 µM (≈ 8.04 µg/mL) | 94 % remaining | 2.7 | 2.7 | 100 % remaining | 0.06 µM | 0.058 µM | < 0.19 µM | – | –
2 | CC(=O)N(C)c1cc(C(F)(F)F)cnc1Nc1nc(-c2ccccn2)ns1 [Compound 53] | 4.05 µM (≈ 1.6 µg/mL) | – | 2.2 | 2.2 | – | 0.05 µM | 0.047 µM | 0.15 µM | – | –
3 | CC(C)Oc1ccc(-c2nsc(Nc3ncc(C(F)(F)F)cc3C(=O)N(C)C)n2)nc1 [Compound 57] | 3.27 µM (≈ 1.48 µg/mL) | – | 3.2 | 3.2 | – | 0.58 µM | 0.578 µM | 1.3 µM | – | –
4 | Cc1cccnc1Nc1nc(-c2cc(C#N)ccn2)ns1 [Compound 14] | 2.55 µM (≈ 0.751 µg/mL) | 65 % remaining | 2 | 2 | 78 % remaining | 3.1 µM | – | 4.5 µM | – | –
5 | Cc1cccnc1N(C)c1nc(-c2ccc(OC(C)C)cn2)ns1 [Compound 42, 3-(5-Isopropoxypyridin-2-yl)-N-methyl-N-(3-methylpyridin-2-yl)-1,2,4-thiadiazol-5-amine] | 33.5 µM (≈ 11.4 µg/mL) | 96 % remaining | 2.35 | 2.35 | 81 % remaining | 0.2 µM | 0.21 µM | 0.36 µM | 0.212 µM | 0.357 µM
6 | Cc1cccnc1Nc1nc(-c2ccc(C#N)cn2)ns1 [Compound 13, 6-(5-((3-Methylpyridin-2-yl)amino)-1,2,4-thiadiazol-3-yl)nicotinonitrile] | 0.55 µM (≈ 0.162 µg/mL) | 66 % remaining | 2.75 | 2.75 | 73 % remaining | 5.8 µM | – | 20 µM | – | –
7 | CC(C)c1cnc(Nc2nc(-c3ncccc3OC3CC3)ns2)cc1C(F)(F)F [Compound 38, 3-(3-Cyclopropoxypyridin-2-yl)-N-(5-isopropyl-4-(trifluoromethyl)pyridin-2-yl)-1,2,4-thiadiazol-5-amine] | 1.03 µM (≈ 0.434 µg/mL) | 100 % remaining | 2.95 | 2.95 | 93 % remaining | 0.02 µM | 0.017 µM | < 0.02 µM | – | < 0.015 µM
8 | Cc1cccnc1Nc1nc(-c2cc(C3CCN(C)CC3)ccn2)ns1 [Compound 22] | 184 µM (≈ 67.5 µg/mL) | 78 % remaining | 2 | 2 | 81 % remaining | 0.2 µM | 0.198 µM | 13.1 µM | – | –
9 | Cc1cccnc1Nc1nc(-c2ccc(OC3CCOCC3)cn2)no1 [Compound 6, N-(3-Methylpyridin-2-yl)-3-(5-((tetrahydro-2H-pyran-4-yl)oxy)pyridin-2-yl)-1,2,4-oxadiazol-5-amine] | 57.5 µM (≈ 20.3 µg/mL) | 98 % remaining | – | 1.7 | 85 % remaining | 0.07 µM | 0.072 µM | 4.1 µM | – | 4.06 µM
10 | Cc1cccnc1Nc1nc(-c2cnc(OC(C)C)cn2)ns1 [Compound 39, 3-(5-Isopropoxypyrazin-2-yl)-N-(3-methyl-2-pyridyl)-1,2,4-thiadiazol-5-amine] | 2.1 µM (≈ 0.69 µg/mL) | 81 % remaining | 3.1 | 3.1 | 74 % remaining | 0.29 µM | 0.286 µM | 1.1 µM | – | –
11 | COc1cccnc1Nc1nc(-c2cc(C)ccn2)ns1 [Compound 29, N-(3-Methoxy-2-pyridyl)-3-(4-methyl-2-pyridyl)-1,2,4-thiadiazol-5-amine] | 26.5 µM (≈ 7.93 µg/mL) | 72 % remaining | 2.1 | 2.1 | 70 % remaining | 0.12 µM | 0.121 µM | 0.88 µM | – | –
12 | CNC(=O)c1cccnc1Nc1nc(-c2ccc(OC(C)C)cn2)ns1 [Compound 60, 2-((3-(5-Isopropoxypyridin-2-yl)-1,2,4-thiadiazol-5-yl)amino)-N-methylnicotinamide] | 10.2 µM (≈ 3.76 µg/mL) | – | 1.8 | 1.8 | – | 0.67 µM | – | 2.4 µM | – | –
13 | CN1CCC(Oc2ccc(Nc3nc(-c4ccccn4)ns3)nc2)CC1 [Compound 36, N-(5-((1-Methylpiperidin-4-yl)oxy)pyridin-2-yl)-3-(pyridin-2-yl)-1,2,4-thiadiazol-5-amine] | 193 µM (≈ 71.3 µg/mL) | 88 % remaining | 1.7 | 1.7 | 99 % remaining | 1.12 µM | – | – | – | –
